This series can be described thus: Phase 1/2 clinical study, plasma pharmacokinetic evaluation. The class given is in vivo. Particulars: human, oral, 140 mg, Cycle 1 Day 1, 140 mg BID Arm B (with azole), N=2, mean.

A word on the Cmax: it is the maximum level reached in the sampled fluid or tissue.

The compound `C=C1C[C@@H]2CC[C@H]1[C@@H](C(=O)N1CCC3(CC1)CN(c1ncncc1Oc1ccc(F)cc1C(=O)N(C(C)C)C(C)C)C3)N2` [the present compound, 5-fluoro-2-[(4-{7-[(1S,3S,4R)-5-methylidene-2-azabicyclo[2.2.2]octane-3-carbonyl]-2,7-diazaspiro[3.5]nonan-2-yl}pyrimidin-5-yl)oxy]-N,N-di(propan-2-yl)benzamide] came in with a Cmax of 3100 ng/mL.

Values taken from patent US20260248787A9, “MEDICAMENT FOR TREATING CANCER COMPRISING OPTICALLY ACTIVE AZABICYCLO RING DERIVATIVE” (Sumitomo Pharma Co., Ltd., priority 2023, published 2026).
